Assay results reported in patent publication US5126337A, “Thiazetoquinoline-3-carboxylic acid derivative and a pharmaceutical composition comprising the same” (priority 1989, dated 1992).
Converted amounts (≈) assume the structure as drawn. Where a name gives a salt, the structure may show the parent alone. Read-outs that look alike come from different tables or passages of the source.

What was measured:
[1] = system: Serratia marcescens HNR 1792; test: Antibacterial spectrum, MIC by twofold agar dilution method; type: cell-based; details: HNR1792, 10^6 cfu/ml, clinically isolated strain, Gram -, 18 hrs at 37° C
Description: (§1) Overnight cultures in Mueller-Hinton broth were suspended by buffered saline gelatin. One loopful of the bacterial suspension (10^6 or 10^8 colony-forming units/ml) was incubated onto the plates containing test compounds. The plates were incubated for 18 hrs at 37° C. The MIC was defined by the lowest concentration of the drug that inhibited visible growth of bacteria.

[2] = system: Enterobacter cloacae HNR 1941; test: as above; type: cell-based; details: HNR1941, 10^6 cfu/ml, clinically isolated strain, Gram -, 18 hrs at 37° C
Description: as §1

[3] = system: Pseudomonas aeruginosa HNR 1489; test: as above; type: cell-based; details: HNR1489, 10^6 cfu/ml, clinically isolated strain, Gram -, 18 hrs at 37° C
Description: as §1

[4] = system: Pseudomonas aeruginosa HNR 1472; test: as above; type: cell-based; details: HNR1472, 10^6 cfu/ml, clinically isolated strain, Gram -, 18 hrs at 37° C
Description: as §1

[5] = system: Serratia marcescens HNR 1544; test: as above; type: cell-based; details: HNR1544, 10^6 cfu/ml, clinically isolated strain, Gram -, 18 hrs at 37° C
Description: as §1

[6] = system: Enterobacter cloacae 963; test: as above; type: cell-based; details: 10^6 cfu/ml, standard laboratory strain, Gram -, 18 hrs at 37° C
Description: as §1

[7] = system: Enterococcus faecalis HPC 975; test: as above; type: cell-based; details: HPC975, 10^6 cfu/ml, clinically isolated strain, Gram +, 18 hrs at 37° C
Description: as §1

[8] = system: Escherichia coli NIHJ JC-2; test: as above; type: cell-based; details: NIHJJC2, 10^6 cfu/ml, standard laboratory strain, Gram -, 18 hrs at 37° C
Description: as §1

[9] = system: Enterobacter cloacae HNR 1946; test: as above; type: cell-based; details: HNR1946, 10^6 cfu/ml, clinically isolated strain, Gram -, 18 hrs at 37° C
Description: as §1

[10] = system: Acinetobacter calcoaceticus HNR 939; test: as above; type: cell-based; details: HNR939, 10^6 cfu/ml, clinically isolated strain, Gram -, 18 hrs at 37° C
Description: as §1

[11] = system: Enterococcus faecalis HPC 948; test: as above; type: cell-based; details: HPC948, 10^6 cfu/ml, clinically isolated strain, Gram +, 18 hrs at 37° C
Description: as §1

[12] = system: Serratia marcescens IAM 1184; test: as above; type: cell-based; details: IAM1184, 10^6 cfu/ml, standard laboratory strain, Gram -, 18 hrs at 37° C
Description: as §1

[13] = system: Staphylococcuss aureus HPC 527; test: as above; type: cell-based; details: 10^6 cfu/ml; clinically isolated strain, Gram +; 18 hrs at 37° C
Description: as §1

[14] = system: Acinetobacter calcoaceticus HNR 904; test: as above; type: cell-based; details: HNR904, 10^6 cfu/ml, clinically isolated strain, Gram -, 18 hrs at 37° C
Description: as §1

[15] = system: Staphylococcuss aureus HPC 292; test: as above; type: cell-based; details: 10^6 cfu/ml; clinically isolated strain, Gram +; 18 hrs at 37° C; read-out: MIC
Description: as §1

[16] = system: Klebsiella pneumoniae HNR 828; test: as above; type: cell-based; details: HNR828, 10^6 cfu/ml, clinically isolated strain, Gram -, 18 hrs at 37° C
Description: as §1

[17] = system: Staphylococcuss aureus HPC 308; test: as above; type: cell-based; details: 10^6 cfu/ml; clinically isolated strain, Gram +; 18 hrs at 37° C
Description: as §1

[18] = system: Pseudomonas aeruginosa HNR 1537; test: as above; type: cell-based; details: HNR1537, 10^6 cfu/ml, clinically isolated strain, Gram -, 18 hrs at 37° C
Description: as §1

[19] = system: Enterobacter cloacae HNR 1939; test: as above; type: cell-based; details: HNR1939, 10^6 cfu/ml, clinically isolated strain, Gram -, 18 hrs at 37° C
Description: as §1

[20] = system: Pseudomonas aeruginosa IFO 3445; test: as above; type: cell-based; details: IFO3445, 10^6 cfu/ml, standard laboratory strain, Gram -, 18 hrs at 37° C
Description: as §1

[21] = system: Enterococcus faecalis HPC 984; test: as above; type: cell-based; details: HPC984, 10^6 cfu/ml, clinically isolated strain, Gram +, 18 hrs at 37° C
Description: as §1

[22] = system: Klebsiella pneumoniae HNR 858; test: as above; type: cell-based; details: HNR858, 10^6 cfu/ml, clinically isolated strain, Gram -, 18 hrs at 37° C
Description: as §1

[23] = system: Klebsiella pneumoniae HNR 869; test: as above; type: cell-based; details: HNR869, 10^6 cfu/ml, clinically isolated strain, Gram -, 18 hrs at 37° C
Description: as §1

[24] = system: Serratia marcescens HNR 1767; test: as above; type: cell-based; details: HNR1767, 10^6 cfu/ml, clinically isolated strain, Gram -, 18 hrs at 37° C
Description: as §1

[25] = system: Staphylococuss aureus FDA 209PJC-1; test: as above; type: cell-based; details: 10^6 cfu/ml; standard laboratory strain, Gram +; 18 hrs at 37° C
Description: as §1

[26] = system: Acinetobacter calcoaceticus HNR 916; test: as above; type: cell-based; details: HNR916, 10^6 cfu/ml, clinically isolated strain, Gram -, 18 hrs at 37° C
Description: as §1

[27] = system: Klebsiella pneumoniae PCI-602; test: as above; type: cell-based
Description: as §1, with “Minimum inhibitory concentrations (MIC) of test compounds were determined by the twofold agar dilution method (Chemotherapy, 29(1), 76(1981)). Overnight” for “Overnight”

[28] = system: Male mice of ddY strain; test: Acute toxicity (i.v.); type: in vivo; details: 270 mg/kg (i.v.)
Description: Male mice of ddY strain, 4 weeks old, were used. Test compounds were solved in 0.1N--NaOH solution and neutralized with 0.1N--HCl solution. Each compound was administered intravenously (i.v.) at a dose of 270 mg/kg. […]

[29] = system: Male mice of ddY strain; test: Convulsion inducing activity in combination with fenbufen; details: 30 min after fenbufen 100 mg/kg orally
Description: Male mice of ddY strain, 5 weeks old, were used. Fenbufen suspended in 0.5% carboxymethyl cellulose was administered orally at a dose of 100 mg/kg. After thirty minutes, test compounds suspended in 0.5% carboxymethyl cellulose were injected intraperitoneally (i.p.) at a dose of 100 mg/kg or 300 mg/kg.

[30] = PCI602, 10^6 cfu/ml, standard laboratory strain, Gram -, 18 hrs at 37° C, read-out: MIC

Structure (SMILES) | MIC [1] [µg/mL] | MIC [3] [µg/mL] | MIC [4] [µg/mL] | MIC [5] [µg/mL] | MIC [6] [µg/mL] | MIC [7] [µg/mL] | MIC [8] [µg/mL] | MIC [9] [µg/mL] | MIC [10] [µg/mL] | MIC [11] [µg/mL] | MIC [12] [µg/mL] | MIC [13] [µg/mL] | MIC [15] [µg/mL] | MIC [16] [µg/mL] | MIC [18] [µg/mL] | MIC [19] [µg/mL] | MIC [20] [µg/mL] | MIC [21] [µg/mL] | MIC [22] [µg/mL] | MIC [23] [µg/mL] | other results
CC1Sc2c(C(=O)O)c(=O)c3cc(F)c(N4CCC(N(C)C)C4)c(Cl)c3n21 (stereo not drawn) [Example 39, 8-Chloro-7-(3-dimethylamino-1-pyrrolidinyl)-6-fluoro-1-methyl-4-oxo-1H, 4H-[1,3]thiazeto[3,2-a]quinoline-3-carboxylic acid] | 12.5 (≈ 30.3 µM) | 1.56 (≈ 3.79 µM) | 25 (≈ 60.7 µM) | 0.2 (≈ 0.486 µM) | 0.39 (≈ 0.947 µM) | 12.5 (≈ 30.3 µM) | 0.1 (≈ 0.243 µM) | 0.78 (≈ 1.89 µM) | 1.56 (≈ 3.79 µM) | 1.56 (≈ 3.79 µM) | 0.39 (≈ 0.947 µM) | 0.2 (≈ 0.486 µM) | 12.5 (≈ 30.3 µM) | 12.5 (≈ 30.3 µM) | 50 (≈ 121 µM) | 0.78 (≈ 1.89 µM) | 1.56 (≈ 3.79 µM) | 0.39 (≈ 0.947 µM) | 0.78 (≈ 1.89 µM) | 3.13 (≈ 7.6 µM) | MIC [2]: 12.5 µg/mL (≈ 30.3 µM); MIC [14]: 6.25 µg/mL (≈ 15.2 µM); MIC [17]: 1.56 µg/mL (≈ 3.79 µM); MIC [24]: 12.5 µg/mL (≈ 30.3 µM); MIC [25]: 0.2 µg/mL (≈ 0.486 µM); MIC [26]: 0.1 µg/mL (≈ 0.243 µM); MIC [27, 30]: 0.025 µg/mL (≈ 0.0607 µM)
CC1Sc2c(C(=O)O)c(=O)c3cc(F)c(N4CC[C@H](N)C4)c(Cl)c3n21 (single isomer, unassigned) [Example 29] | 0.78 (≈ 2.03 µM) | 0.2 (≈ 0.521 µM) | 3.13 (≈ 8.15 µM) | 0.05 (≈ 0.13 µM) | 0.025 (≈ 0.0651 µM) | 6.25 (≈ 16.3 µM) | 0.025 (≈ 0.0651 µM) | 0.2 (≈ 0.521 µM) | 1.56 (≈ 4.06 µM) | 0.78 (≈ 2.03 µM) | 0.1 (≈ 0.261 µM) | 0.05 (≈ 0.13 µM) | 6.25 (≈ 16.3 µM) | 1.56 (≈ 4.06 µM) | 3.13 (≈ 8.15 µM) | 0.2 (≈ 0.521 µM) | 0.1 (≈ 0.261 µM) | 0.2 (≈ 0.521 µM) | 0.2 (≈ 0.521 µM) | 0.39 (≈ 1.02 µM) | MIC [2]: 1.56 µg/mL (≈ 4.06 µM); MIC [17]: 0.78 µg/mL (≈ 2.03 µM); MIC [24]: 3.13 µg/mL (≈ 8.15 µM); MIC [25]: 0.05 µg/mL (≈ 0.13 µM); MIC [26]: 0.1 µg/mL (≈ 0.261 µM); Number of death/Number of animals [28]: 3/10; Number of convulsion induced/Number of animals ([29]; 100 mg/kg (i.p.)): 0/6; Number of convulsion induced/Number of animals ([29]; 300 mg/kg (i.p.)): 0/6
CC1Sc2c(C(=O)O)c(=O)c3cc(F)c(N4CC[C@H](N)C4)c(F)c3n21 (single isomer, unassigned) [Example 27] | 1.56 (≈ 4.25 µM) | 0.1 (≈ 0.272 µM) | 3.13 (≈ 8.52 µM) | 0.05 (≈ 0.136 µM) | 0.05 (≈ 0.136 µM) | 6.25 (≈ 17 µM) | 0.025 (≈ 0.068 µM) | 0.2 (≈ 0.544 µM) | 1.56 (≈ 4.25 µM) | 0.78 (≈ 2.12 µM) | 0.05 (≈ 0.136 µM) | 0.05 (≈ 0.136 µM) | 6.25 (≈ 17 µM) | 1.56 (≈ 4.25 µM) | 6.25 (≈ 17 µM) | 0.2 (≈ 0.544 µM) | 0.1 (≈ 0.272 µM) | 0.2 (≈ 0.544 µM) | 0.2 (≈ 0.544 µM) | 0.78 (≈ 2.12 µM) | MIC [14]: 25 µg/mL (≈ 68 µM); MIC [24]: 6.25 µg/mL (≈ 17 µM); MIC [25]: 0.025 µg/mL (≈ 0.068 µM); MIC [26]: 0.1 µg/mL (≈ 0.272 µM); Number of death/Number of animals [28]: 4/10; Number of convulsion induced/Number of animals ([29]; 100 mg/kg (i.p.)): 0/6; Number of convulsion induced/Number of animals ([29]; 300 mg/kg (i.p.)): 0/6; MIC [27, 30]: ≤ 0.003 µg/mL
O=C(O)c1cn(C2CC2)c2cc(N3CCNCC3)c(F)cc2c1=O [Reference Drug A, ciprofloxacin hydrochloride, reference compound] |  |  |  |  |  |  |  |  |  |  |  |  |  |  |  |  |  |  |  |  | Number of death/Number of animals [28]: 7/10; Number of convulsion induced/Number of animals ([29]; 100 mg/kg (i.p.)): 4/6; Number of convulsion induced/Number of animals ([29]; 300 mg/kg (i.p.)): 6/6; MIC ([27]; PCI602, 18 h): 0.012 µg/mL
